Consider two compounds from patent EP3025717A1, “SYNERGISTIC PHARMACEUTICAL COMPOSITION OF TWO ANALGESICS HAVING A DISTINCT PHARMACOKINETIC PROFILE” (FARMACÉUTICOS RAYERE, S.A., priority 2013, dated 2014).

The conditions of data set [1]: cited from earlier work.
In data set [2] the test system is acute inflammatory pain. Briefly: Formalin model of acute inflammatory pain in mice, isobolographic analysis. The format is in vivo, ICR male mice. The following applies: Mus musculus, ip; individual drug, intraperitoneal, 20 minutes before formalin, phase 2 (15 to 45 minutes); read-out: DE30 (dose causing 30% anti-nociceptive effect).
Description: The duration of the experiment was always as short as possible, considering that the number of animals used was the minimum necessary. […] Transparent cylinders of 20 cm diameter X 40 cm high were used, with mirrors. At the start of the experiment, the mice were placed in cylinders for a period of 60 minutes to settle. After this time, the mice were removed for the administration of 20 μL formalin (3% formaldehyde solution). Immediately after formalin administration, the mouse was returned to the cylinder for observing the characteristic behaviour, which consists in counting the number of licks of the injected paw during 5-minute periods to a total time of 45 minutes. […] Groups of animals were used with an average n ≥ 6. Physiological saline solution (0.9) was administered intraperitoneally as a control of each experimental set. […] The percentage of anti-nociception was plotted according to the dose of both analgesics individually or in combination. The data of the dose-response curve were analysed by a variance analysis (ANOVA), followed by a Tukey test. […] The doses used for this assay correspond to those reported as effective in humans, considering that an average human weighs 60 kg.
Data set [3] concerns COX-1 and COX-2. To be noted: in vitro; cited from earlier work.

The term Tmax denotes the time from dosing to the highest level. With `Cc1cnc(NC(=O)C2=C(O)c3ccccc3S(=O)(=O)N2C)s1` [MXC, 4-hydroxy-2-methyl-N-(5-methyl-2-thiazolyl)-2H-1,2-benzothiazine-3-carboxamide-1,1-dioxide], the “percentage of native drug in the faeces” value in data set [1] (faeces) is reported as 1.6%. In addition, the “administered dose excreted in the urine” value in data set [1] (mostly as metabolites) is reported as 43%. The absolute bio-availability in data set [1] (oral administration) was 90%. For the same compound, the Tmax in data set [1] (plasma) is 5 to 6 h. In data set [1] (presence of food), the “increase of the maximum plasma concentrations by food” value was 22%. Moreover, in data set [1] (synovial fluid), the “plasma concentrations observed in synovial fluid” value is on record as 40-50%. For the same compound, the “percentage of native drug in the urine” value in data set [1] (urine) is listed as 0.2%. Also, the ED30 in data set [2] came to 0.12 ± 0.004 mg/kg.

With `CC(=O)Oc1ccccc1C(=O)O` [aspirin, acetylsalicylic acid], the “ratio Cl50COX-2/Cl50COX-1 (inhibits more the constitutive COX-1 than the COX-2)” value in data set [3] is recorded as 166 times.
